Measurements published in ChEMBL document CHEMBL3885881, “DrugMatrix”.

Species: Rattus norvegicus
Assay: DrugMatrix - Regimen: Daily Repeat
Assay type: toxicity, organism-based, Sprague-Dawley
Set-up: regimen Daily Repeat, gender Male, age 6-8 weeks
Details: in vivo, po, route oral GAVAGE, […]; for ABSOLUTE BASOPHIL / BASOPHIL / EOSINOPHIL / NUCLEATED RED BLOOD CELLS / MONOCYTE / ABSOLUTE EOSINOPHIL / ABSOLUTE LYMPHOCYTE / ABSOLUTE MONOCYTE / ABSOLUTE SEGMENTED NEUTROPHIL / ERYTHROCYTE COUNT / HEMATOCRIT / HEMOGLOBIN / LEUKOCYTE COUNT / LYMPHOCYTE / MEAN CORPUSCULAR HEMOGLOBIN / MEAN CORPUSCULAR HEMOGLOBIN CONCENTRATION / MEAN CORPUSCULAR VOLUME / NEUTROPHIL / PLATELET COUNT: tissue Blood; for TOTAL BILIRUBIN / URIC ACID / ALANINE AMINOTRANSFERASE / ALBUMIN / ALKALINE PHOSPHATASE / ASPARTATE AMINOTRANSFERASE / BLOOD UREA NITROGEN / CARBON DIOXIDE / CHLORIDE / CHOLESTEROL / CREATINE PHOSPHOKINASE / CREATININE / GLUCOSE / LACTATE DEHYDROGENASE / LIPASE / PHOSPHORUS / POTASSIUM / SODIUM / TOTAL PROTEIN: tissue Plasma
[1] = 0 mg/kg, 72 h, dose level Control, time 3 day
[2] = 0 mg/kg, 120 h, dose level Control, time 5 day
[3] = 10 mg/kg, 72 h, dose level M1, time 3 day
[4] = 10 mg/kg, 120 h, dose level M1, time 5 day
[5] = 650 mg/kg, 72 h, dose level High, time 3 day
[6] = 650 mg/kg, 120 h, dose level High, time 5 day
[7] = 72 h, dose 6.5 mg/Kg, dose level Low, time 3 day
[8] = 120 h, dose 6.5 mg/Kg, dose level Low, time 5 day

**Q.** Which results are given for `O=C(c1ccc(OCCN2CCCCC2)cc1)c1c(-c2ccc(O)cc2)sc2cc(O)ccc12` [RALOXIFENE]?
**A.** ABSOLUTE BASOPHIL [1]: 0 CELLS/uL; BASOPHIL [1]: 0%; EOSINOPHIL [1]: 0.17%; NUCLEATED RED BLOOD CELLS [1]: 0 /100WBC; ABSOLUTE BASOPHIL [2]: 0 CELLS/uL; BASOPHIL [2]: 0%; MONOCYTE [2]: 1.17%; TOTAL BILIRUBIN [2]: 0.1 mg/dL; URIC ACID [2]: 0.52 mg/dL; ABSOLUTE BASOPHIL [3]: 0 CELLS/uL; ABSOLUTE EOSINOPHIL [3]: 29.33 CELLS/uL; ABSOLUTE LYMPHOCYTE [3]: 7440 CELLS/uL; ABSOLUTE MONOCYTE [3]: 116 CELLS/uL; ABSOLUTE SEGMENTED NEUTROPHIL [3]: 681.33 CELLS/uL; BASOPHIL [3]: 0%; EOSINOPHIL [3]: 0.33%; ERYTHROCYTE COUNT [3]: 5.44 x10E6/uL; HEMATOCRIT [3]: 34.47%; HEMOGLOBIN [3]: 13.3 G/DL; LEUKOCYTE COUNT [3]: 8.27 x10E3/uL; LYMPHOCYTE [3]: 90.33%; MEAN CORPUSCULAR HEMOGLOBIN [3]: 24.53 pg; MEAN CORPUSCULAR HEMOGLOBIN CONCENTRATION [3]: 38.6 G/DL; MEAN CORPUSCULAR VOLUME [3]: 63.53 fL; MONOCYTE [3]: 1.33%; NEUTROPHIL [3]: 8%; NUCLEATED RED BLOOD CELLS [3]: 0.33 /100WBC; PLATELET COUNT [3]: 1223 x10E3/uL; ALANINE AMINOTRANSFERASE [3]: 53.67 u/L; ALBUMIN [3]: 4.43 G/DL; ALKALINE PHOSPHATASE [3]: 398.33 u/L; ASPARTATE AMINOTRANSFERASE [3]: 90.67 u/L; BLOOD UREA NITROGEN [3]: 10 mg/dL; CARBON DIOXIDE [3]: 31.67 mmol/L; CHLORIDE [3]: 101.67 MEQ/L; CHOLESTEROL [3]: 52.67 mg/dL; CREATINE PHOSPHOKINASE [3]: 300.33 u/L; CREATININE [3]: 0.24 mg/dL; GLUCOSE [3]: 151.33 mg/dL; LACTATE DEHYDROGENASE [3]: 123 u/L; LIPASE [3]: 9.33 u/L; PHOSPHORUS [3]: 10.93 mg/dL; POTASSIUM [3]: 5.67 MEQ/L; SODIUM [3]: 147.7 MEQ/L; TOTAL BILIRUBIN [3]: 0.13 mg/dL; TOTAL PROTEIN [3]: 6.5 G/DL; URIC ACID [3]: 0.87 mg/dL; ABSOLUTE BASOPHIL [4]: 0 CELLS/uL; ABSOLUTE EOSINOPHIL [4]: 34 CELLS/uL; ABSOLUTE LYMPHOCYTE [4]: 8594.67 CELLS/uL; ABSOLUTE MONOCYTE [4]: 97 CELLS/uL; ABSOLUTE SEGMENTED NEUTROPHIL [4]: 974.33 CELLS/uL; BASOPHIL [4]: 0%; EOSINOPHIL [4]: 0.33%; ERYTHROCYTE COUNT [4]: 5.62 x10E6/uL; HEMATOCRIT [4]: 34.3%; HEMOGLOBIN [4]: 13.33 G/DL; LEUKOCYTE COUNT [4]: 9.7 x10E3/uL; LYMPHOCYTE [4]: 89%; MEAN CORPUSCULAR HEMOGLOBIN [4]: 23.8 pg; MEAN CORPUSCULAR HEMOGLOBIN CONCENTRATION [4]: 38.93 G/DL; MEAN CORPUSCULAR VOLUME [4]: 61.13 fL; MONOCYTE [4]: 1%; NEUTROPHIL [4]: 9.67%; NUCLEATED RED BLOOD CELLS [4]: 0 /100WBC; PLATELET COUNT [4]: 1211.33 x10E3/uL; ALANINE AMINOTRANSFERASE [4]: 42.33 u/L; ALBUMIN [4]: 4.5 G/DL; ALKALINE PHOSPHATASE [4]: 301.33 u/L; ASPARTATE AMINOTRANSFERASE [4]: 77.67 u/L; BLOOD UREA NITROGEN [4]: 9 mg/dL; CARBON DIOXIDE [4]: 28.67 mmol/L; CHLORIDE [4]: 102 MEQ/L; CHOLESTEROL [4]: 50 mg/dL; CREATINE PHOSPHOKINASE [4]: 198.67 u/L; CREATININE [4]: 0.33 mg/dL; GLUCOSE [4]: 168.33 mg/dL; LACTATE DEHYDROGENASE [4]: 130.67 u/L; LIPASE [4]: 8.33 u/L; PHOSPHORUS [4]: 12.1 mg/dL; POTASSIUM [4]: 4.86 MEQ/L; SODIUM [4]: 146.9 MEQ/L; TOTAL BILIRUBIN [4]: 0.1 mg/dL; TOTAL PROTEIN [4]: 6.33 G/DL; URIC ACID [4]: 0.77 mg/dL; ABSOLUTE BASOPHIL [5]: 0 CELLS/uL; BASOPHIL [5]: 0%; NUCLEATED RED BLOOD CELLS [5]: 0 /100WBC; LIPASE [5]: 10.33 u/L; URIC ACID [5]: 0.67 mg/dL; ABSOLUTE BASOPHIL [6]: 0 CELLS/uL; BASOPHIL [6]: 0%; NUCLEATED RED BLOOD CELLS [6]: 0 /100WBC; ABSOLUTE BASOPHIL [7]: 0 CELLS/uL; ABSOLUTE EOSINOPHIL [7]: 59.33 CELLS/uL; ABSOLUTE LYMPHOCYTE [7]: 5494.67 CELLS/uL; ABSOLUTE MONOCYTE [7]: 60.33 CELLS/uL; ABSOLUTE SEGMENTED NEUTROPHIL [7]: 452.33 CELLS/uL; BASOPHIL [7]: 0%; EOSINOPHIL [7]: 0.67%; ERYTHROCYTE COUNT [7]: 5.5 x10E6/uL; HEMATOCRIT [7]: 35.2%; HEMOGLOBIN [7]: 13.7 G/DL; LEUKOCYTE COUNT [7]: 6.07 x10E3/uL; LYMPHOCYTE [7]: 90.33%; MEAN CORPUSCULAR HEMOGLOBIN [7]: 24.87 pg; MEAN CORPUSCULAR HEMOGLOBIN CONCENTRATION [7]: 38.93 G/DL; MEAN CORPUSCULAR VOLUME [7]: 63.93 fL; MONOCYTE [7]: 1.33%; NEUTROPHIL [7]: 7.67%; NUCLEATED RED BLOOD CELLS [7]: 0.67 /100WBC; PLATELET COUNT [7]: 1046.33 x10E3/uL; ALANINE AMINOTRANSFERASE [7]: 63 u/L; ALBUMIN [7]: 4.13 G/DL; ALKALINE PHOSPHATASE [7]: 536.33 u/L; ASPARTATE AMINOTRANSFERASE [7]: 92 u/L; BLOOD UREA NITROGEN [7]: 8.67 mg/dL; CARBON DIOXIDE [7]: 29.67 mmol/L; CHLORIDE [7]: 98.33 MEQ/L; CHOLESTEROL [7]: 41 mg/dL; CREATINE PHOSPHOKINASE [7]: 405 u/L; CREATININE [7]: 0.12 mg/dL; GLUCOSE [7]: 157 mg/dL; LACTATE DEHYDROGENASE [7]: 73.33 u/L; LIPASE [7]: 9.67 u/L; PHOSPHORUS [7]: 10.5 mg/dL; POTASSIUM [7]: 5.24 MEQ/L; SODIUM [7]: 143.33 MEQ/L; TOTAL BILIRUBIN [7]: 0.13 mg/dL; TOTAL PROTEIN [7]: 6.07 G/DL; URIC ACID [7]: 0.63 mg/dL; ABSOLUTE BASOPHIL [8]: 0 CELLS/uL; ABSOLUTE EOSINOPHIL [8]: 0 CELLS/uL; ABSOLUTE LYMPHOCYTE [8]: 6955.67 CELLS/uL; ABSOLUTE MONOCYTE [8]: 124.33 CELLS/uL; ABSOLUTE SEGMENTED NEUTROPHIL [8]: 286.67 CELLS/uL; BASOPHIL [8]: 0%; EOSINOPHIL [8]: 0%; ERYTHROCYTE COUNT [8]: 5.53 x10E6/uL; HEMATOCRIT [8]: 34.77%; HEMOGLOBIN [8]: 13.37 G/DL; LEUKOCYTE COUNT [8]: 7.37 x10E3/uL; LYMPHOCYTE [8]: 94.33%; MEAN CORPUSCULAR HEMOGLOBIN [8]: 24.17 pg; MEAN CORPUSCULAR HEMOGLOBIN CONCENTRATION [8]: 38.47 G/DL; MEAN CORPUSCULAR VOLUME [8]: 62.87 fL; MONOCYTE [8]: 1.67%; NEUTROPHIL [8]: 4%; NUCLEATED RED BLOOD CELLS [8]: 0 /100WBC; PLATELET COUNT [8]: 1226.67 x10E3/uL; ALANINE AMINOTRANSFERASE [8]: 57 u/L; ALBUMIN [8]: 4.1 G/DL; ALKALINE PHOSPHATASE [8]: 411.67 u/L; ASPARTATE AMINOTRANSFERASE [8]: 105.33 u/L; BLOOD UREA NITROGEN [8]: 10.33 mg/dL; CARBON DIOXIDE [8]: 28.33 mmol/L; CHLORIDE [8]: 99.33 MEQ/L; CHOLESTEROL [8]: 26 mg/dL; CREATINE PHOSPHOKINASE [8]: 332.33 u/L; CREATININE [8]: 0.19 mg/dL; GLUCOSE [8]: 169 mg/dL; LACTATE DEHYDROGENASE [8]: 99.67 u/L; LIPASE [8]: 30 u/L; PHOSPHORUS [8]: 11.23 mg/dL; POTASSIUM [8]: 5.86 MEQ/L; SODIUM [8]: 144.43 MEQ/L; TOTAL BILIRUBIN [8]: 0.1 mg/dL; TOTAL PROTEIN [8]: 5.87 G/DL; URIC ACID [8]: 1 mg/dL
